Measured values from the METLIN SMRT retention time set (Domingo-Almenara et al. 2019).

Experiment: gradient 5% acetonitrile 3 min, to 50% in 2 min, to 85% in 15 min, held 3 min, 100 µL/min
Conditions: column: Zorbax Extend-C18 2.1 x 50 mm; eluents: water / acetonitrile, 0.1% formic acid
Outline: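 Mixtures of ~100 pure standards were chromatographed on a Zorbax Extend-C18 column (2.1 × 50 mm, 1.8 μm) at 100 μL/min using water and acetonitrile, each with 0.1% formic acid. Detection used a quadrupole time-of-flight mass spectrometer in positive and negative ionization mode, and data collection spanned 3 months. Retention time was obtained from adduct peaks picked computationally and each checked manually.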

Structure (SMILES) | RP-LC retention time [s]
COc1cccc(NC(=O)C2(C)CCCCC(=O)N2)c1 (stereo not drawn) | 601
Cn1c(N2CCN(S(=O)(=O)c3ccc(Cl)s3)CC2)nc2ccccc21 | 614
CC(NC(=O)C1CCCN(C(=O)c2cc3sccc3n2C)C1)c1ccccc1 (stereo not drawn) | 628
Fc1ccc(C2Cn3nnc(-c4nc(-c5cccc(Cl)c5)no4)c3CO2)cc1 (stereo not drawn) | 1260
COc1ccc(C2C(C(=O)NCCCN3CCCCCC3)CCC(=O)N2c2ccc(OC)cc2)cc1 (stereo not drawn) | 589
CCOC(=O)c1[nH]c(C)c(CCC(=O)N2CCC(C(=O)NCc3ccc(C)o3)CC2)c1C | 739
O=C1CC(c2noc(Cc3ccc(F)cc3)n2)CN1c1ccc(F)cc1 (stereo not drawn) | 933
O=C(C1CCC(=O)N1S(=O)(=O)c1ccccc1)N1CCN(C2CCCCC2)CC1 (stereo not drawn) | 619
CCc1cccc(C)c1NC(=O)Cn1cnc2nc(N3CCCC(C(=O)NC4CC4)C3)sc2c1=O (stereo not drawn) | 694
Cc1nc(C(C)C)ncc1C(=O)Nc1ccc(Br)cc1F | 907
CCOC(=O)c1sc(NC(=O)c2cn(CC)c3nc(C)ccc3c2=O)nc1C | 1040
N#Cc1cccc(Cn2cc(S(=O)(=O)N3CCCCC3)ccc2=O)c1 | 842
Cc1nc(-c2noc(-c3ccccc3)n2)cn1CC(=O)NCc1ccc2c(c1)OCO2 | 800
CC1(C)Cc2cccc(OCC(=O)N3CCN(Cc4nnnn4-c4ccccc4)CC3)c2O1 | 811
C[C@H](NC(=O)[C@H](Cc1ccccc1)NC(=O)OCc1ccccc1)C(=O)CF | 824
CC(C)NC(=O)c1ccc(OCC2CCCN2C(=O)c2cc(F)ccc2Cl)cc1 (stereo not drawn) | 881
O=C(Cn1nc2nc(Nc3ccc(F)cc3)ccn2c1=O)NCC1CCCO1 (stereo not drawn) | 637
Cc1[nH]c(C(=O)N2CCCC(C(=O)NCCN3CCCCCC3)C2)c(C)c1C(=O)OC(C)C (stereo not drawn) | 654
O=C(NCCc1ccncc1)C1CCCN(c2nnc3ccc(C(F)(F)F)cn23)C1 (stereo not drawn) | 537
CCOC(=O)N1CCN(C(=O)Cn2ccc3ccccc32)CC1 | 731
CCn1c(=O)n(CC(=O)NCCC2=CCCCC2)c(=O)c2cnc(-c3ccccc3)nc21 | 1130
Cc1cccc(NC(=O)Cn2ccc3ccc(-c4nnc(C)o4)cc32)c1 | 814

Structure (SMILES) | RP-LC retention time [s]
CCCC(=O)Nc1ccc(-n2cnc(C(=O)N3CCN(c4cccc(C)c4C)CC3)c2)nc1 | 929
CN1CCN(CCNC(=O)C2CCN(c3nc4ccccc4n(C)c3=O)CC2)CC1 | 588
CNC(=O)C1CCCN(C(=O)Nc2ccc(NC(=O)Nc3ccc(C)cc3)cc2)C1 (stereo not drawn) | 883
Cc1c(C(=O)C(=O)Nc2ccc(F)cc2)c2ccccc2n1C | 921
Cc1ccc(CCC(=O)Nc2ccc(SC(F)F)cc2)o1 | 919
CCc1cccc(C)c1Nc1c(-c2ccc(F)cc2)nc2nc(C)cc(C)n12 | 828
COc1ccc(CCC(=O)NC2CCN(c3nnc4ccc(C(F)(F)F)cn34)CC2)cc1 | 767
O=C(Nc1ccc(N2CCCN(C(=O)C3CC3)CC2)cc1)c1cncc(Br)c1 | 701
COCCNC(=O)CSc1nccnc1Oc1ccc(C)cc1 | 798
Cc1cc(NC(=O)C2CC2)nn1Cc1ccccc1 | 746
CC(=O)c1cccc(NC(=O)c2cc(Cl)ccc2Cl)c1 | 848
CCn1nc2ccc(S(=O)(=O)N3CCC(C)CC3)cn2c1=O | 827
Cc1ccccc1NC(=O)N1CCC(CC(=O)N2CCCCC2)CC1 | 732
Cn1cccc1C(=O)C(=O)N1CCN(Cc2ccc3c(c2)OCO3)CC1 | 596
Cc1ccccc1S(=O)(=O)N1CCN(c2nc3ccncc3n(CC(C)C)c2=O)CC1 | 775
CCc1ccc(C2=C(C)C(N3CCCN(C(=O)CCOC)CC3)=NS2(=O)=O)cc1 | 795
Cc1nc(-c2ccccc2)cc2nn(CC(=O)NCc3ccc(F)cc3F)c(=O)n12 | 902
CCCCS(=O)(=O)c1cc2c(cc1NC(=O)c1cccc(C)c1)n(C)c(=O)n2C | 981
O=C(c1cn(-c2cc(N3CCSCC3)ncn2)cn1)N1CCN(c2ccccn2)CC1 | 624
CCOc1ccccc1NC(=O)CN1CCN(Cc2ccc(C)cc2)C(=O)C1=O | 848
O=C(Nc1cnc(N2CCCCC2)nc1)c1cc(F)ccc1F | 952
COC(=O)c1cc(S(=O)(=O)N2CCCC2C(=O)Nc2ccc(OC)cc2)cn1C (stereo not drawn) | 818

Structure (SMILES) | RP-LC retention time [s]
O=C(Cn1nc(N2CCOCC2)c2ccccc2c1=O)Nc1ccc(F)c(F)c1 | 796
COc1ccc(CNC2=NCCNC23CCN(S(=O)(=O)c2ccc(C(C)(C)C)cc2)CC3)cc1 | 844
CC(C)NC(=O)c1ccc(OCC2CCN(C(=O)c3ccc(N(C)C)cc3)CC2)cc1 | 816
Cc1nc(C)c(C(=O)N2CC(Oc3cccc(-c4nc(-c5ccccc5)no4)c3)C2)s1 | 1110
Cc1ccc(N2CN(CC(=O)NCCC3=CCCCC3)S(=O)(=O)c3cccnc32)cc1 | 1050
CCOC(=O)N1CCC2(CC1)N=C(c1ccc(F)cc1)CC(c1cccc(OC)c1O)N2 (stereo not drawn) | 748
CCc1ccc(-c2noc(Cn3cnc4c(nnn4-c4ccccc4OC)c3=O)n2)cc1 | 1040
Cc1nn(-c2ccccc2)c(C)c1CCc1nnc2sc(-c3ccc(N(C)C)cc3)nn12 | 1020
CN1CCC(OC2CCN(C(=O)c3ccc(Br)cc3)CC2)CC1 | 615
CCc1noc(NC(C)=O)c1-c1ccc(C)c(S(=O)(=O)Nc2ccc(C(F)(F)F)cc2)c1 | 902
CC(C)CC(=O)N1CCN(c2nc(CN3CCOCC3)cs2)CC1 | 590
CC1CCN(S(=O)(=O)c2ccc(-c3nnc(C(=O)NC(C)CCc4ccccc4)o3)cc2)CC1 (stereo not drawn) | 1170
CCCN(C(=O)CC)c1nc(-c2cccc(Cl)c2)cs1 | 1320
Cc1nnc(-c2ccc3ccn(CC(=O)Nc4ncccc4C)c3c2)o1 | 618
COc1ccc2[nH]cc(CCNC(=O)c3cccc(NC(=O)c4nnc(CC(C)C)s4)c3)c2c1 | 938
CCOCCCNC(=O)C1CCCN(c2ccc(=O)n(-c3ccc(C)c(Cl)c3)n2)C1 (stereo not drawn) | 826
COc1cc(=O)n2c(c1C(=O)NCCC1=CCCCC1)CCCC2 | 723
O=C(NCc1ccc(Cl)cc1)C1CCN(c2cn[nH]c(=O)c2)CC1 | 669
CCN(CC)CCOc1ccc(/C(=C(\Cl)c2ccccc2)c2ccccc2)cc1 | 996
Cc1ccc(S(=O)(=O)N2CCC(n3cnnc3-c3ccccc3)CC2)c(C)c1 | 844
CSc1ccc(CNC(=O)CN2CCc3[nH]c4c(C)cc(C)cc4c(=O)c3C2)cc1 | 904
CCOC(=O)c1c(C)nn(Cc2cccc(Cl)c2)c1N | 884

Structure (SMILES) | RP-LC retention time [s]
O=C(NCC1CCS(=O)(=O)C1)c1cc(-c2ccc(F)cc2)n[nH]1 (stereo not drawn) | 643
CS(=O)(=O)Nc1ccc(Cc2noc(-c3ccc4[nH]cc(CCN)c4c3)n2)cc1 | 686
CC(C)c1nccn1C1CN(C(=O)C2CCCCC2)C1 | 594
CCN1CCN(S(=O)(=O)c2c(C)nn(-c3ccc(-c4ccc(C)cc4)nn3)c2C)CC1 | 708
O=C(NCC1CCN(Cc2ccccc2F)CC1)C1CCN(c2ccc3nncn3n2)CC1 | 584
CCCCn1cc(S(=O)(=O)Nc2cc(F)ccc2C)c2cccnc21 | 995
O=C(Cn1nc2nc(N3CCCC3)ccn2c1=O)Nc1ccc(Cl)cc1 | 714
CCn1cc(S(=O)(=O)N2[C@H]3CC[C@@H]2c2cnc(-c4ccccc4)nc2C3)cn1 | 868
CNC(=O)c1sc(-c2cccc(C)c2)nc1C | 797
Cn1cc(C(=O)NCc2cccc(C(F)(F)F)c2)c2cccnc21 | 818
Cc1cc(C)c(S(=O)(=O)N2CCCC2c2nc(-c3ccccc3C)no2)cc1C (stereo not drawn) | 1300
O=C(Nc1nc(-c2ccc(Br)s2)cs1)c1ccc([N+](=O)[O-])s1 | 1120
O=C(NCC(c1cccnc1)c1c[nH]c2ccccc12)Nc1cccc(Br)c1 (stereo not drawn) | 714
CNC(=O)N1CCC(C2CCN(C(=O)CSC)C2)CC1 (stereo not drawn) | 608
Cc1ccc(C)c(NC(=O)Cn2c(=O)cc(-c3nc(C)no3)c3ccccc32)c1 | 910
COc1ccc2[nH]c3c(c2c1)CCNC31CCN(Cc2ccc(F)cc2F)CC1 | 580
O=C(NC1CCCN(c2cc(-c3ccc(F)cc3)[nH]n2)C1)c1ccc2c(c1)OCO2 (stereo not drawn) | 796
Cc1cc2ccccc2n2c(SCC(=O)NCc3ccco3)nnc12 | 663
COc1ccc(-c2noc(-c3cn(C)c4ccc(C)cc4c3=O)n2)cc1OC | 796
Cc1noc(C)c1-c1ccc(S(=O)(=O)Nc2ccc(C#N)cc2)cc1 | 874
COc1cc(F)ccc1-c1ccnc2nc(-c3cccs3)nn12 | 918
Cc1ccc(Cc2nc(-c3ccc(S(=O)(=O)N4CCC(C(=O)N5CCCC5)CC4)cc3)no2)cc1 | 1060
